# Measured values reported in patent publication US20260174823A1 (The Children's Medical Center Corporation, priority 2022, published 2026).
# Entries after “also recorded” stand apart in the source; their conditions may differ.
# B1: Fremanezumab (antibody, chains of the INN, looked up, V domains shown)
# VH: EVQLVESGGGLVQPGGSLRLSCAASGFTFSNYWISWVRQAPGKGLEWVAEIRSESDASATHYAEAVKGRFTISRDNAKNSLYLQMNSLRAEDTAVYYCLAYFDYGLAIQNYWGQGTLVTVSS
# VL: EIVLTQSPATLSLSPGERATLSCKASKRVTTYVSWYQQKPGQAPRLLIYGASNRYLGIPARFSGSGSGTDFTLTISSLEPEDFAVYYCSQSYNYPYTFGQGTKLEIK
# notes: a monoclonal antibody antagonist of CGRP
# B2: Galcanezumab (antibody, chains of the INN, looked up, V domains shown)
# VH: QVQLVQSGAEVKKPGSSVKVSCKASGYTFGNYWMQWVRQAPGQGLEWMGAIYEGTGKTVYIQKFADRVTITADKSTSTAYMELSSLRSEDTAVYYCARLSDYVSGFGYWGQGTTVTVSS
# VL: DIQMTQSPSSLSASVGDRVTITCRASKDISKYLNWYQQKPGKAPKLLIYYTSGYHSGVPSRFSGSGSGTDFTLTISSLQPEDFATYYCQQGDALPPTFGGGTKVEIK
# notes: a second monoclonal antibody antagonist of CGRP
# What was measured:
# endometriosis lesions = assay: endometriosis lesion size measured with calipers in mouse model; assay type: in vivo
# [1] = system: murine model for endometriosis pain; assay: endometriosis-associated pain overall (von Frey plus spontaneous pain behaviors) in mouse model; assay type: in vivo; conditions: vs vehicle
# Experimental: (§1) After at least one week of acclimatization, donor mice received a subcutaneous injection of 3 μg/mouse estradiol benzoate to stimulate the growth of the endometrium. Seven days later, the uteri of the donor mice were dissected into a Petri dish containing HBSS and split longitudinally with a pair of scissors. Uterine horns from each donor mouse were minced with scissors and scalpel one at the time, ensuring that the maximal diameter of each fragment was consistently smaller than 1 millimeter (mm). Each dissociated uterine horn was then injected intraperitoneally using an 18 G needle into a recipient mouse in 500 μL of HBSS. One donor mouse was used for every two endometriosis mice.
# (§2) For mechanical and heat hyperalgesia tests, mice were allowed to habituate to the apparatus for at least 2 hours and during three consecutive days before the beginning of measurements. […] Pain intensity to a mechanical stimulus (mechanical hyperalgesia) in the abdominal region was measured using von Frey filaments. […] The mechanical threshold was determined by the up and down method starting with 0.4 g filament and calculated using the open-source software Up-Down Reader.
# For spontaneous abdominal pain measurements, stretching the abdomen (abdominal contortions) and squashing of the lower abdomen against the floor were quantified. […]
# [2] = system: murine model for endometriosis pain; assay: spontaneous pain quantification (abdominal squashing and contortions) in mouse model of endometriosis; assay type: in vivo
# Experimental: as §1
# For spontaneous abdominal pain measurements, stretching the abdomen (abdominal contortions) and squashing of the lower abdomen against the floor were quantified. Briefly, for the abdominal contortions, mice were placed in individual chambers in a temperature-controlled (29° C.) glass plate and the number of abdominal contortions was quantified for 10 minutes.
# Positive responses consist of a contraction of the abdominal muscle together with stretching of hind limbs. For abdominal squashing, the number of times the mice pressed the lower abdominal region against the floor in five minutes was quantified.
# It was therefore tested whether Rimegepant is effective at reducing pain in a murine model (FIG. 1A). Endometriosis lesions were induced in 40 mice and at day 29 post-induction, mice were randomly assigned to treatment with vehicle or Rimegepant at 3, 10, or 30 mg/kg (n=10 mice per group). Treatment was performed daily by oral gavage. Mechanical abdominal pain was determined weekly, 7 to 42 days post implantation (dpi) using von Frey filaments, while abdominal squashing and contortions were determined by counting these pain behaviors. Lesion size was calculated from the mean of two measurements (width and height in mm). […]
# [3] = system: murine model for endometriosis pain; assay: von Frey testing of abdominal mechanical pain in non-surgical mouse model of endometriosis; assay type: in vivo
# Experimental: as §1, §2
# It was therefore tested whether Rimegepant is effective at reducing pain in a murine model (FIG. 1A). […] Lesion size was calculated from the mean of two measurements (width and height in mm). […]
# peritoneal macrophages = assay: efferocytosis assay: peritoneal macrophages with apoptotic 12z-eGFP cells; assay type: cell-based, mouse; conditions: Rimegepant 100 nM 30 minutes before CGRP 100 nM for 24 hours; apoptotic 12z-eGFP added for 1 hour
# Experimental: (§3) Peritoneal cells were collected in FACS buffer from the abdominal cavity of naïve mice. Peritoneal cavity immune cells were seeded in petri dishes in RPMI media and incubated at 37° C. in 5% CO2 for 60 minutes. Non-adherent cells were discarded, and adherent cells (macrophages) were scraped, centrifuged, and counted.
# For the efferocytosis assay, macrophages (200,000 cells per well) were plated overnight onto a 96-well plate. Stimulus with CGRP (100 nM) or vehicle was performed for 24 hours. After that, etoposide-induced apoptotic 12z-eGFP were added (600,000 cells per well) to the macrophage culture and incubated for 1 hour. Cells were washed 3 times with DPBS to remove non-engulfed 12z-eGFP and then and fluorescence intensity determined. Treatment with Rimegepant (100 nM) or vehicle was performed 30 minutes before stimulus with CGRP. […]
# For the efferocytosis assay, macrophages were plated overnight onto a 96-well plate and stimulus with CGRP (100 nM) or vehicle was performed for 24 h. […] Cells were washed 3 times with DPBS to remove non-engulfed 12z-eGFP and then and fluorescence intensity determined. […] Results shown are expressed as mean±SEM, n=5−12 (one-way ANOVA followed by Tukey's post hoc or Student's t-test, ****P<0.0001, p<0.001, **p<0.02, *p<0.05).
# [4] = system: mouse endometrial epithelial cells (mEECs); assay: mEEC proliferation assay in transwell co-culture with peritoneal macrophages (CyQuant); assay type: cell-based; conditions: Rimegepant 100 nM 30 minutes before CGRP 100 nM for 24 hours
# Experimental: as §3
# For experiments involving mouse epithelial endometrial cell (mEEC) proliferation, macrophages were plated (100,000 cells per well) onto tissue culture insert and left overnight with 20,000 mEEC plated on the bottom of the well. Stimulus with CGRP (100 nM) or vehicle was performed for 24 hours and then mEEC were used to determine for cell proliferation assay using CyQuant™ kit (Thermo Fisher Scientific #C7026). Treatment with Rimegepant (100 nM) or vehicle was performed 30 minutes before stimulus with CGRP.
# In this experiment, peritoneal macrophages were plated on a cell culture insert and co-cultured with a mouse epithelial endometrial cell line (mEEC) in a 24-well plate. Cell growth was assessed using the CyQuant™ kit and quantification performed in a spectrophotometer (n=8 well per group).
# Macrophages were plated onto tissue culture insert with mEEC plated on the bottom of the well. […] Results shown are expressed as mean±SEM, n=5−12 (one-way ANOVA followed by Tukey's post hoc or Student's t-test, ****P<0.0001, p<0.001, **p<0.02, *p<0.05).
# [5] = cited from earlier work
# [6] = system: murine model for endometriosis pain; assay: endometriosis-associated pain overall (von Frey plus spontaneous pain behaviors) in mouse model; assay type: in vivo; conditions: 29 to 56 dpi, vs vehicle
# [7] = nociceptor ablation in RTX-treated lesion-bearing mice
# [8] = Rimegepant 3, 10 or 30 mg/kg daily by oral gavage, 29 to 42 dpi, vs vehicle
molecule,measurement,setting,value
CC[N+](CC)(CC)CC(=O)Nc1c(C)cccc1C [QX-314],lesion size,"endometriosis lesions; QX-314 0.1 or 1 mg/kg daily i.p., 29 to 35 dpi, vs vehicle",reduced lesion size; also recorded: reduces
same,endometriosis-associated pain,"[1]; QX-314 0.1 or 1 mg/kg daily i.p., 29 to 35 dpi",reduced endometriosis-associated pain; also recorded: reduces
"C=C(C)[C@]12C[C@@H](C)[C@@]34O[C@](Cc5ccccc5)(O[C@@H]1[C@@H]3C=C(COC(=O)Cc1ccc(O)c(OC)c1)C[C@]1(O)C(=O)C(C)=C[C@@H]41)O2 [RTX, resiniferatoxin toxin]",spontaneous pain behaviors,[2]; [7],reduced
same,evoked pain,[3]; [7],reduced
same,lesion size,endometriosis lesions; [7],reduced
N[C@@H]1c2cccnc2[C@H](OC(=O)N2CCC(n3c(=O)[nH]c4ncccc43)CC2)CC[C@H]1c1cccc(F)c1F [Rimegepant],efferocytosis activity of CGRP-stimulated macrophages (eGFP fluorescence intensity),peritoneal macrophages,rescued; also recorded: restores normal levels of efferocytosis
same,growth (proliferation) of mEEC promoted by CGRP-stimulated macrophages,[4],inhibited; also recorded: reduces mEEC proliferation
same,number of abdominal contortion,[2]; [8],reduced
same,number of abdominal squashing,[2]; [8],reduced
same,abdominal mechanical threshold to the von Frey fibers,[3]; [8],increased
same,preclinical safety profile upon chronic treatment,[5]; chronic treatment (26 weeks),safe preclinical profile
same,adverse effects on fertility,[5]; doses as high as 60 mg/kg,no adverse effects on fertility
same,lesion size,endometriosis lesions; [8],reduced lesion size; also recorded: reduces
same,endometriosis-associated pain,"[1]; Rimegepant 3, 10 or 30 mg/kg daily by oral gavage, 29 to 42 dpi",reduces endometriosis-associated pain
C[C@@H]1[C@H](c2ccccc2)C[C@H](NC(=O)c2cnc3c(c2)C[C@@]2(C3)C(=O)Nc3ncccc32)C(=O)N1CC(F)(F)F [Ubrogepant],endometriosis-associated pain,[6]; Ubrogepant 50 mg/kg daily per oral gavage,significant reduction
same,endometriosis-associated pain,"[6]; Ubrogepant 50 mg/kg daily per oral gavage, listed as Ubrogevant",reduce
same,lesion size,"endometriosis lesions; Ubrogepant 50 mg/kg daily per oral gavage, 29 to 56 dpi, vs vehicle",significantly smaller
same,lesion size,"endometriosis lesions; Ubrogepant 50 mg/kg daily per oral gavage, 29 to 56 dpi, vs vehicle, listed as Ubrogevant",reduce
B1,endometriosis-associated pain,[6]; Fremanezumab 100 mg/kg subcutaneous injection,significant reduction; also recorded: reduce
same,lesion size,"endometriosis lesions; Fremanezumab 100 mg/kg subcutaneous injection, 29 to 56 dpi, vs vehicle",significantly smaller; also recorded: reduce
B2,endometriosis-associated pain,[6]; Galcanezumab 4 mg/kg subcutaneous injection,significant reduction; also recorded: reduce
same,lesion size,"endometriosis lesions; Galcanezumab 4 mg/kg subcutaneous injection, 29 to 56 dpi, vs vehicle",reduce
